System: 138582-337-R-J1-PDC spheroids with HUVEC/MSC, viability
Assay: Anticancer human tumor 138582-337-R-J1-PDC patient-derived Merkel cell tumor cell line growth inhibition [IpAb]
Conditions: for IC50: curve of first compound; for viability, T/C: stronger effect = lower value
Excerpt: Combinatorial screen of targeted agents with ipatasertib and abemaciclib in multi-cell type tumor spheroids
A high-throughput screen of multi-cell type tumor spheroids was designed to identify active combinations of targeted small molecules and ipatasertib or abemaciclib. Complex spheroids include a stromal component modeled by human endothelial cells (HUVEC) and fibroblasts modeled by human mesenchymal stem cells (MSCs). The concentration ranges selected for each drug and investigational agent were based upon clinically achievable concentrations if the clinical Cmax of the agent was known.
Compounds. The drugs and investigational agents: ipatasertib (NSC767898), abemaciclib(NSC768073), selumetinib (NSC741078), trametinib (758246), adavosertib (NSC754352), everolimus (NSC733504), sapanisertib (NSC764658), vemurafenib (NSC761431), venetoclax (NSC766270), copanlisib (NSC809693), apelisib (NSC765974), palbociblib (NSC758247), vemurafenib (NSC761431), dabrafenib (NSC764134), ravoxertinib (NSC781343), BMS-387032 (NSC767048), sotorasib (NSC818433), talazoparib (NSC767125) and afursertib (NSC778305), were obtained from the National Cancer Institute (NCI) Developmental Therapeutics Program Chemical Repository. The FDA-approved anticancer drug set is available from the NCI Developmental Therapeutics Program. […] The stock solutions were prepared in dimethyl sulfoxide (DMSO, Sigma-Aldrich, St. Louis, MO, cat. D2650) at 800-fold the tested concentration and stored at -70 degrees C prior to their use. All drugs and investigational agents were tested over a range starting from a high concentration at or near the clinical Cmax and decreasing in half-log increments. If the clinical Cmax for an agent had not been determined, the highest concentration tested was 10 microM.
NCI60 Cell Culture. NCI60 cell lines were obtained from the NCI Developmental Therapeutics Program Tumor Repository. For each lot of cells, the Repository performed Applied Biosystems AmpFLSTR Identifiler testing with PCR amplification to confirm consistency with the published Identifier STR profile for each cell line. Cells were kept in continuous culture for no more than 20 passages. The optimal seeding densities for each of the cell lines at each time point assessed were determined prior to performing the concentration response studies. Briefly, the NCI60 human tumor lines were grown as monolayers in RPMI 1640 medium supplemented with 10% FBS and 2 mmol/L L-glutamine.
An additional 9 lines were from the NCI60 cell line panel including MDA-MB-231 breast carcinoma, MDA-MB-468 breast carcinoma, MCF7 breast carcinoma, Hs578T breast carcinoma, MALME-3M melanoma, SK-MEL-2 melanoma, SK-OV-3 ovarian carcinoma, DU-145 prostate carcinoma, PC-3 prostate carcinoma, all cell lines along with major genetic alterations are listed on Table 2. Pooled donor human umbilical vein endothelial cells (HUVEC, Lonza, cat. CC-2519) and human mesenchymal stem cells (hMSC, Lonza, cat. PT-2501) were purchased from Lonza (Walkersville, MD).
PDMR cell lines were grown in complete medium (DC medium): Dulbecco's modified Eagle's medium (DMEM)/F12 supplemented with 5% fetal bovine serum (FBS), 2 mM L-glutamine, 100 U/mL penicillin and 100 µg/ml streptomycin, 0.4 µg/ml hydrocortisone, 10 ng/ml epidermal growth factor (EGF) recombinant human protein, 24 µg/mL adenine, and 0.1 mg/mL primocin. During culture from frozen stock vials, PDMR cells were cultured in the same medium containing 10 µM Y-27632 (see Table 3). The PDCs were cultured in complete DMEM/F12 media without 10 microM Y-27632 dihydrochloride for at least two passages prior to the screen. The pooled donor HUVEC and hMSC were cultured in endothelial cell growth medium 2 (PromoCell, Heidelberg, Germany, cat. C-22011) and mesenchymal stem cell growth medium 2 (PromoCell, cat. C-28009), respectively. For all experiments, HUVEC and hMSC were used at passages </=5.
[…]

[1] = second compound 0.1 µM, first compound 0.0316 µM
[2] = second compound 0.1 µM, first compound 0.1 µM
[3] = second compound 0.1 µM, first compound 0.316 µM
[4] = second compound 0.1 µM, first compound 1 µM
[5] = second compound 0.1 µM, first compound 3.16 µM
[6] = second compound 0.1 µM, first compound 10 µM
[7] = second compound 0.316 µM, first compound 0.0316 µM
[8] = second compound 0.316 µM, first compound 0.1 µM
[9] = second compound 0.316 µM, first compound 0.316 µM
[10] = second compound 0.316 µM, first compound 1 µM
[11] = second compound 0.316 µM, first compound 3.16 µM
[12] = second compound 0.316 µM, first compound 10 µM
[13] = second compound 1 µM, first compound 0.0316 µM
[14] = second compound 1 µM, first compound 0.1 µM
[15] = second compound 1 µM, first compound 0.316 µM
[16] = second compound 1 µM, first compound 1 µM
[17] = second compound 1 µM, first compound 3.16 µM
[18] = second compound 1 µM, first compound 10 µM
[19] = second compound 3.16 µM, first compound 0.0316 µM
[20] = second compound 3.16 µM, first compound 0.1 µM
[21] = second compound 3.16 µM, first compound 0.316 µM
[22] = second compound 3.16 µM, first compound 1 µM
[23] = second compound 3.16 µM, first compound 3.16 µM
[24] = second compound 3.16 µM, first compound 10 µM
[25] = second compound 10 µM, first compound 0.0316 µM
[26] = second compound 10 µM, first compound 0.1 µM
[27] = second compound 10 µM, first compound 0.316 µM
[28] = second compound 10 µM, first compound 1 µM
[29] = second compound 10 µM, first compound 3.16 µM
[30] = second compound 10 µM, first compound 10 µM
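Note: spheroids exposed to compounds for seven days.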
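Throughout, for viability, T/C: 100% = DMSO vehicle control viability.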

Molecule C=CCn1c(=O)c2cnc(Nc3ccc(N4CCN(C)CC4)cc3)nc2n1-c1cccc(C(C)(C)O)n1 + CC(C)NCC(C(=O)N1CCN(c2ncnc3c2C(C)CC3O)CC1)c1ccc(Cl)cc1 has an IC50 (second compound 0.1 µM) of over 10000 nM, an IC50 (second compound 0.316 µM) of over 10000 nM and an IC50 (second compound 1 µM) of over 10000 nM. For the same molecule, the IC50 (second compound 3.16 µM) was under 31.6 nM, the IC50 (second compound 10 µM) was under 31.6 nM and the viability, T/C [1] was 96.8%. For the same molecule, the viability, T/C [2] was 95.6%, the viability, T/C [3] was 78% and the viability, T/C [4] was 99.6%. For the same molecule, the viability, T/C [5] was 99.1%, the viability, T/C [6] was 134% and the viability, T/C [7] was 85.5%. For the same molecule, the viability, T/C [8] was 73.6%, the viability, T/C [9] was 74.7% and the viability, T/C [10] was 71.4%. It also gave a viability, T/C [11] of 94.2%, a viability, T/C [12] of 117% and a viability, T/C [13] of 66.7%. The viability, T/C [14] was 73.5%, the viability, T/C [15] was 54.5% and the viability, T/C [16] was 63.6%. It also gave a viability, T/C [17] of 83.4%, a viability, T/C [18] of 89.1% and a viability, T/C [19] of 58.1%. The viability, T/C [20] was 53.6%, the viability, T/C [21] was 38.9% and the viability, T/C [22] was 46.6%. The viability, T/C [23] was 74.8%, the viability, T/C [24] was 73.8% and the viability, T/C [25] was 54.6%. It also gave a viability, T/C [26] of 41.5%, a viability, T/C [27] of 33.9% and a viability, T/C [28] of 42%. For the same molecule, the viability, T/C [29] was 60.1% and the viability, T/C [30] was 55.5%.
Molecule CC(C)n1nc(-c2ccc3oc(N)nc3c2)c2c(N)ncnc21 + CC(C)NCC(C(=O)N1CCN(c2ncnc3c2C(C)CC3O)CC1)c1ccc(Cl)cc1 has an IC50 (second compound 0.1 µM) of 22.4 nM, an IC50 (second compound 0.316 µM) of 7.57 nM and an IC50 (second compound 1 µM) of 1.97 nM. The IC50 (second compound 3.16 µM) was 0.362 nM, the IC50 (second compound 10 µM) was under 0.316 nM and the viability, T/C (second compound 0.1 µM, first compound 0.000316 µM) was 96.3%. The viability, T/C (second compound 0.1 µM, first compound 0.001 µM) was 89.2%, the viability, T/C (second compound 0.1 µM, first compound 0.00316 µM) was 70% and the viability, T/C (second compound 0.1 µM, first compound 0.01 µM) was 64.1%. It also gave a viability, T/C [1] of 43.8%, a viability, T/C [2] of 31.9% and a viability, T/C (second compound 0.316 µM, first compound 0.000316 µM) of 67.8%. The viability, T/C (second compound 0.316 µM, first compound 0.001 µM) was 66%, the viability, T/C (second compound 0.316 µM, first compound 0.00316 µM) was 61.8% and the viability, T/C (second compound 0.316 µM, first compound 0.01 µM) was 44.1%. The viability, T/C [7] was 37%, the viability, T/C [8] was 26.8% and the viability, T/C (second compound 1 µM, first compound 0.000316 µM) was 63.1%. The viability, T/C (second compound 1 µM, first compound 0.001 µM) was 54.1%, the viability, T/C (second compound 1 µM, first compound 0.00316 µM) was 47.5% and the viability, T/C (second compound 1 µM, first compound 0.01 µM) was 36.2%. The viability, T/C [13] was 27.5%, the viability, T/C [14] was 22% and the viability, T/C (second compound 3.16 µM, first compound 0.000316 µM) was 50%. It also gave a viability, T/C (second compound 3.16 µM, first compound 0.001 µM) of 47.3%, a viability, T/C (second compound 3.16 µM, first compound 0.00316 µM) of 36% and a viability, T/C (second compound 3.16 µM, first compound 0.01 µM) of 27.3%. For the same molecule, the viability, T/C [19] was 19.6%, the viability, T/C [20] was 17.5% and the viability, T/C (second compound 10 µM, first compound 0.000316 µM) was 40.5%. It also gave a viability, T/C (second compound 10 µM, first compound 0.001 µM) of 35.9%, a viability, T/C (second compound 10 µM, first compound 0.00316 µM) of 31.6% and a viability, T/C (second compound 10 µM, first compound 0.01 µM) of 21.8%. The viability, T/C [25] was 14.4% and the viability, T/C [26] was 12.3%.
CC1(C)CCC(CN2CCN(c3ccc(C(=O)NS(=O)(=O)c4ccc(NCC5CCOCC5)c([N+](=O)[O-])c4)c(Oc4cnc5[nH]ccc5c4)c3)CC2)=C(c2ccc(Cl)cc2)C1 + CC(C)NCC(C(=O)N1CCN(c2ncnc3c2C(C)CC3O)CC1)c1ccc(Cl)cc1 was tested, and the IC50 (second compound 0.1 µM) was over 10000 nM, the IC50 (second compound 0.316 µM) was over 10000 nM and the IC50 (second compound 1 µM) was over 10000 nM. For the same molecule, the IC50 (second compound 3.16 µM) was under 31.6 nM, the IC50 (second compound 10 µM) was under 31.6 nM and the viability, T/C [1] was 83.6%. It also gave a viability, T/C [2] of 73.6%, a viability, T/C [3] of 78.5% and a viability, T/C [4] of 75.1%. It also gave a viability, T/C [5] of 74.5%, a viability, T/C [6] of 76.6% and a viability, T/C [7] of 73%. For the same molecule, the viability, T/C [8] was 69.8%, the viability, T/C [9] was 67% and the viability, T/C [10] was 71.4%. For the same molecule, the viability, T/C [11] was 63.3%, the viability, T/C [12] was 71.2% and the viability, T/C [13] was 65.2%. It also gave a viability, T/C [14] of 63.5%, a viability, T/C [15] of 63.8% and a viability, T/C [16] of 60.9%. The viability, T/C [17] was 60.2%, the viability, T/C [18] was 63.8% and the viability, T/C [19] was 51.2%. It also gave a viability, T/C [20] of 50.7%, a viability, T/C [21] of 46.9% and a viability, T/C [22] of 50.3%. For the same molecule, the viability, T/C [23] was 49.6%, the viability, T/C [24] was 32.3% and the viability, T/C [25] was 43.7%. The viability, T/C [26] was 41.7%, the viability, T/C [27] was 41.3% and the viability, T/C [28] was 38.3%. The viability, T/C [29] was 47.1% and the viability, T/C [30] was 11%.
With CCCS(=O)(=O)Nc1ccc(F)c(C(=O)c2c[nH]c3ncc(-c4ccc(Cl)cc4)cc23)c1F + CC(C)NCC(C(=O)N1CCN(c2ncnc3c2C(C)CC3O)CC1)c1ccc(Cl)cc1 the IC50 (second compound 0.1 µM) was over 10000 nM, the IC50 (second compound 0.316 µM) was over 10000 nM and the IC50 (second compound 1 µM) was 4180 nM. It also gave an IC50 (second compound 3.16 µM) of under 31.6 nM, an IC50 (second compound 10 µM) of under 31.6 nM and a viability, T/C [1] of 87.4%. For the same molecule, the viability, T/C [2] was 86.3%, the viability, T/C [3] was 88.9% and the viability, T/C [4] was 89.7%. For the same molecule, the viability, T/C [5] was 102%, the viability, T/C [6] was 68.2% and the viability, T/C [7] was 73.2%. The viability, T/C [8] was 77.2%, the viability, T/C [9] was 66% and the viability, T/C [10] was 68%. It also gave a viability, T/C [11] of 71.7%, a viability, T/C [12] of 51.6% and a viability, T/C [13] of 67.3%. It also gave a viability, T/C [14] of 61.2%, a viability, T/C [15] of 61.3% and a viability, T/C [16] of 54.5%. For the same molecule, the viability, T/C [17] was 58%, the viability, T/C [18] was 36% and the viability, T/C [19] was 47.2%. The viability, T/C [20] was 48.5%, the viability, T/C [21] was 47.1% and the viability, T/C [22] was 45%. For the same molecule, the viability, T/C [23] was 42.5%, the viability, T/C [24] was 21.3% and the viability, T/C [25] was 41.8%. It also gave a viability, T/C [26] of 47.8%, a viability, T/C [27] of 43.7% and a viability, T/C [28] of 35.7%. For the same molecule, the viability, T/C [29] was 31.1% and the viability, T/C [30] was 1.88%.

Source: PubChem BioAssay AID2060343 (Molecular Pharmacology Branch, DTP, NCI, 2025)
